Test results from patent publication US20230265151A1, “GIP/GLP1 CO-AGONIST COMPOUNDS” (priority 2020, published 2023).
Where two headings read alike, the source gives them in different places. *1 amine or outer side, *2 acyl side, *3 side chain or, on linkers, in order; H or OH if unused. Where a SMILES comes first, the peptide text is derived from it. Side-chain parts run from the residue outwards. [ ]: non-standard residue; d: D form. The star is where a group is joined. Decanoyl(10-(4-HOOC-PhO)) = O=C(O)c1ccc(OCCCCCCCCCC(=O)*)cc1; αMePhe(2-F) = C[C@](N)(Cc1ccccc1F)C(=O)O; γGlu = O=C(O)[C@H](CCC(=O)[*:2])N[*:1]; αMeY = C[C@](N)(Cc1ccc(O)cc1)C(=O)O; αMeL = CC(C)C[C@](C)(N)C(=O)O; Orn = NCCC[C@H](N)C(=O)O; AEEA = NCCOCCOCC(=O)O; Aib = CC(C)(N)C(=O)O

Assays:
Assay type in all cases: cell-based
[1] = target: T1, hGIPR (Homo sapiens, UniProt P48546); experiment: Functional cAMP formation (HTRF) in HEK-293 clonal cells expressing hGIPR, 0.1% bovine casein, without or with 1.0% human serum albumin; conditions: for EC50: hGIPR EC50, nM (SEM, n), cAMP, incubated at 37° C., 0.1% bovine casein (no human serum albumin), geometric mean
T1 construct: expressed in transfected cells
T1 sequence (P48546 22-466): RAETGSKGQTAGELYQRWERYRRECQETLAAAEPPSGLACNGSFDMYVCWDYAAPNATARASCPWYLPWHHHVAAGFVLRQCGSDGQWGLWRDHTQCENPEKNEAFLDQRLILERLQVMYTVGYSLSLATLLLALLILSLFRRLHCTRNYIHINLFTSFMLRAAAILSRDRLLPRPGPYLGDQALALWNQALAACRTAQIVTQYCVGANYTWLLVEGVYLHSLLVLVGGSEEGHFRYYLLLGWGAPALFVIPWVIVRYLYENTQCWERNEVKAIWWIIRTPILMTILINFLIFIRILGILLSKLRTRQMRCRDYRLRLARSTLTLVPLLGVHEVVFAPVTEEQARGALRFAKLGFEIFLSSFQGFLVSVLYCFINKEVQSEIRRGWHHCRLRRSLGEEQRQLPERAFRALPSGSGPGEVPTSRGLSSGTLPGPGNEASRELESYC
Method in brief: (§1)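 Cells were stimulated with peptide for 30 min at 37° C, then intracellular cAMP was measured by competitive HTRF (665/620 nm ratio) and converted to nM using a cAMP standard curve. Relative EC50 and Emax came from four-parameter logistic fits of percent maximal response against peptide concentration.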

[2] = target: T2, hGCGR (Homo sapiens, UniProt P47871); experiment: Functional cAMP formation (HTRF) in HEK-293 clonal cells expressing hGCGR, 0.1% bovine casein, without or with 1.0% human serum albumin; conditions: hGCGR EC50, nM (SEM, n), geometric mean
T2 construct: expressed in transfected cells
T2 sequence (P47871 26-477): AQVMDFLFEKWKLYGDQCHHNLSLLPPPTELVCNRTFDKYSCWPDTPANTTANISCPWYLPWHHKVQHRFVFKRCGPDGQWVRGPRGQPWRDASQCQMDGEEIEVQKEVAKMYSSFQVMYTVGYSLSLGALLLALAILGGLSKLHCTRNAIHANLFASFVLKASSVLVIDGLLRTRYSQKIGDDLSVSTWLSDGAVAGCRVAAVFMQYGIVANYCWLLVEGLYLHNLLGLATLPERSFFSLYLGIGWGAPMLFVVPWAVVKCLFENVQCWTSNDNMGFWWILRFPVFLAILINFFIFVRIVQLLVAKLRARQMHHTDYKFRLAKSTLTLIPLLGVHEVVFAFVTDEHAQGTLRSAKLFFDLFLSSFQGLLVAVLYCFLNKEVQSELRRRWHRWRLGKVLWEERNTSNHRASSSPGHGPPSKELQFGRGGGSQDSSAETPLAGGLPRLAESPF
Method in brief: as §1

[3] = target: hGLP-1R (Homo sapiens, UniProt P43220); experiment: Functional cAMP formation (HTRF) in HEK-293 clonal cells expressing hGLP-1R, 0.1% bovine casein, without or with 1.0% human serum albumin; parameters: expressed in transfected cells; conditions: for Emax: arithmetic mean; for EC50: hGLP-1R EC50, nM (SEM, n), geometric mean
Chain of hGLP-1R (P43220 24-463): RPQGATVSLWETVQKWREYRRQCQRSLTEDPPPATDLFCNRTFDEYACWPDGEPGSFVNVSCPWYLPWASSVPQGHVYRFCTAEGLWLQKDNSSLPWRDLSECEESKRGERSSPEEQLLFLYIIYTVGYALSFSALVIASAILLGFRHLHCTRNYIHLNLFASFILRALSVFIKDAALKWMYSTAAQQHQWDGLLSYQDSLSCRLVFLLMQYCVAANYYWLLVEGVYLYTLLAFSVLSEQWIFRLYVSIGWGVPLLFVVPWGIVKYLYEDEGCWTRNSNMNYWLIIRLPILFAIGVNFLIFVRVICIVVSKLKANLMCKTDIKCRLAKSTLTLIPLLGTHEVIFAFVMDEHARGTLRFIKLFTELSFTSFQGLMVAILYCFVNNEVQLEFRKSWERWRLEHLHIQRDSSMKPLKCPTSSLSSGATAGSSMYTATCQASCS
Method in brief: as §1

[4] = HEK293, read-out: hGIPR Emax, % ± SEM, 0.1% bovine casein and 1.0% human serum albumin, 37° C., percent of maximal response to GIP(1-42)NH2
[5] = 0.1% bovine casein and 1.0% human serum albumin, 37° C.
[6] = cAMP, incubated at 37° C., 0.1% bovine casein (no human serum albumin)
[7] = HEK293, read-out: hGIPR Emax, % ± SEM, percent of maximal response to GIP(1-42)NH2, 37° C., 0.1% bovine casein, arithmetic mean

SMILES | Emax [1, 4] [%] | EC50 [1] [nM] | EC50 [2, 5] [nM] | EC50 [2, 6] [nM] | Emax ([3]; HEK293, read-out: hGLP-1R Emax, % ± SEM, percent of maximal response to GLP-1(7-36)NH2, 37° C., 0.1% bovine casein) [%] | EC50 [3, 5] [nM] | EC50 [3, 6] [nM] | Emax [1, 7] [%] | Emax ([1]; HEK293, read-out: hGIPR Emax, % ± SEM, cAMP, 37° C., 0.1% bovine casein, percent of maximal response to GIP(1-42)NH2, arithmetic mean) [%] | EC50 ([2]; cAMP, 37° C., 0.1% bovine casein (no human serum albumin)) [nM] | Emax ([3]; HEK293, read-out: hGLP-1R Emax, % ± SEM, cAMP, 37° C., 0.1% bovine casein, percent of maximal response to GLP-1(7-36)NH2) [%]
CC[C@H](C)[C@H](NC(=O)[C@H](CCCN)NC(=O)[C@H](CC(=O)O)NC(=O)[C@H](CC(C)C)NC(=O)[C@](C)(CC(C)C)NC(=O)[C@@H](NC(=O)C(C)(C)NC(=O)[C@H](Cc1ccc(O)cc1)NC(=O)[C@H](CC(=O)O)NC(=O)[C@H](CO)NC(=O)[C@@H](NC(=O)[C@](C)(Cc1ccccc1F)NC(=O)[C@@H](NC(=O)CNC(=O)[C@H](CCC(=O)O)NC(=O)C(C)(C)NC(=O)[C@@H](N)Cc1ccc(O)cc1)[C@@H](C)O)[C@@H](C)O)[C@@H](C)CC)C(=O)N[C@@H](C)C(=O)N[C@@H](CCC(N)=O)C(=O)NC(C)(C)C(=O)N[C@@H](CCCCNC(=O)COCCOCCNC(=O)COCCOCCNC(=O)CC[C@H](NC(=O)CCCCCCCCCOc1ccc(C(=O)O)cc1)C(=O)O)C(=O)N[C@@H](Cc1ccccc1)C(=O)N[C@H](C(=O)N[C@H](CCC(=O)O)C(=O)N[C@@](C)(Cc1ccc(O)cc1)C(=O)N[C@@H](CC(C)C)C(=O)N[C@H](C(=O)N[C@@H](CCCCNC(=O)COCCOCCNC(=O)COCCOCCNC(=O)CC[C@H](NC(=O)CCCCCCCCCOc1ccc(C(=O)O)cc1)C(=O)O)C(=O)NCC(=O)NCC(=O)N1CCC[C@H]1C(=O)N[C@@H](CO)C(=O)N[C@@H](CO)C(=O)NCC(=O)N[C@@H](C)C(=O)N1CCC[C@H]1C(=O)N1CCC[C@H]1C(=O)N1CCC[C@H]1C(=O)N[C@@H](CO)C(N)=O)[C@@H](C)CC)[C@@H](C)CC [Example 240] (H-Y[Aib]EGT[αMePhe(2-F)]TSDY[Aib]I[αMeL]LD[Orn]IAQ[Aib]K([AEEA-AEEA-γGlu-Decanoyl(10-(4-HOOC-PhO))])FI[dE][αMeY]LIK([AEEA-AEEA-γGlu-Decanoyl(10-(4-HOOC-PhO))])GGPSSGAPPPS-NH2) | 87.2 | 0.0237 | > 9950 | > 9950 | 98.5 | 150 | 0.508 |  |  |  | 
CC[C@H](C)[C@H](NC(=O)[C@H](CC(C)C)NC(=O)[C@](C)(Cc1ccc(O)cc1)NC(=O)[C@H](CCCCNC(=O)COCCOCCNC(=O)COCCOCCNC(=O)CC[C@H](NC(=O)CCCc1ccc(C(C)(C)C)cc1)C(=O)O)NC(=O)[C@@H](NC(=O)[C@H](Cc1ccccc1)NC(=O)[C@H](CCC(=O)O)NC(=O)C(C)(C)NC(=O)[C@H](CCC(N)=O)NC(=O)[C@H](C)NC(=O)[C@H](CCCCNC(=O)COCCOCCNC(=O)COCCOCCNC(=O)CC[C@H](NC(=O)CCCc1ccc(C(C)(C)C)cc1)C(=O)O)NC(=O)[C@H](CCCN)NC(=O)[C@H](CC(=O)O)NC(=O)[C@H](CC(C)C)NC(=O)[C@](C)(CC(C)C)NC(=O)[C@@H](NC(=O)[C@H](CO)NC(=O)[C@H](Cc1ccncc1)NC(=O)[C@H](CC(=O)O)NC(=O)[C@H](CO)NC(=O)[C@@H](NC(=O)[C@](C)(Cc1ccccc1F)NC(=O)[C@@H](NC(=O)CNC(=O)[C@H](CCC(=O)O)NC(=O)C(C)(C)NC(=O)[C@@H](N)Cc1ccc(O)cc1)[C@@H](C)O)[C@@H](C)O)[C@@H](C)CC)[C@@H](C)CC)C(=O)N[C@@H](CCC(=O)O)C(=O)NCC(=O)NCC(=O)N1CCC[C@H]1C(=O)N[C@@H](CO)C(=O)N[C@@H](CO)C(=O)NCC(=O)N[C@@H](C)C(=O)N1CCC[C@H]1C(=O)N1CCC[C@H]1C(=O)N1CCC[C@H]1C(=O)N[C@@H](CO)C(N)=O [Example 132] |  | 0.0208 |  | > 9950 |  |  | 0.182 | 98.3 ± 1.68 |  |  | 
CC[C@H](C)[C@H](NC(=O)[C@H](CC(C)C)NC(=O)[C@](C)(Cc1ccc(O)cc1)NC(=O)[C@H](CCCCNC(=O)COCCOCCNC(=O)COCCOCCNC(=O)CC[C@H](NC(=O)CCCCCCCCCCCCC(=O)O)C(=O)O)NC(=O)[C@@H](NC(=O)[C@](C)(Cc1ccccc1)NC(=O)[C@H](CCC(=O)O)NC(=O)C(C)(C)NC(=O)[C@H](CCC(N)=O)NC(=O)[C@H](C)NC(=O)[C@H](CCCCNC(=O)COCCOCCNC(=O)COCCOCCNC(=O)CC[C@H](NC(=O)CCCCCCCCCCCCC(=O)O)C(=O)O)NC(=O)[C@H](CCCN)NC(=O)[C@H](CC(=O)O)NC(=O)[C@H](CC(C)C)NC(=O)[C@](C)(CC(C)C)NC(=O)[C@@H](NC(=O)[C@H](CO)NC(=O)[C@H](Cc1ccncc1)NC(=O)[C@H](CC(=O)O)NC(=O)[C@H](CO)NC(=O)[C@@H](NC(=O)[C@](C)(Cc1ccccc1F)NC(=O)[C@@H](NC(=O)CNC(=O)[C@H](CCC(=O)O)NC(=O)C(C)(C)NC(=O)[C@@H](N)Cc1ccc(O)cc1)[C@@H](C)O)[C@@H](C)O)[C@@H](C)CC)[C@@H](C)CC)C(=O)N[C@@H](CCC(=O)O)C(=O)NCC(=O)NCC(=O)N1CCC[C@H]1C(=O)N[C@@H](CO)C(=O)N[C@@H](CO)C(=O)NCC(=O)N[C@@H](C)C(=O)N1CCC[C@H]1C(=O)N1CCC[C@H]1C(=O)N1CCC[C@H]1C(=O)N[C@@H](CO)C(N)=O [Example 82] |  | 0.0206 |  | > 9950 |  |  | 4.78 | 81.4 ± 6.09 |  |  | 
CC[C@H](C)[C@H](NC(=O)[C@H](CCCN)NC(=O)[C@H](CC(=O)O)NC(=O)[C@H](CC(C)C)NC(=O)[C@](C)(CC(C)C)NC(=O)[C@@H](NC(=O)[C@H](CO)NC(=O)[C@H](Cc1ccncc1)NC(=O)[C@H](CC(=O)O)NC(=O)[C@H](CO)NC(=O)[C@@H](NC(=O)[C@](C)(Cc1ccccc1F)NC(=O)[C@@H](NC(=O)CNC(=O)[C@H](CCC(=O)O)NC(=O)C(C)(C)NC(=O)[C@@H](N)Cc1ccc(O)cc1)[C@@H](C)O)[C@@H](C)O)[C@@H](C)CC)C(=O)N[C@@H](C)C(=O)N[C@@H](CCC(N)=O)C(=O)NC(C)(C)C(=O)N[C@@H](CCCCNC(=O)COCCOCCNC(=O)COCCOCCNC(=O)CC[C@H](NC(=O)CCCCCCCCCCOc1ccc(C(=O)O)cc1)C(=O)O)C(=O)N[C@@H](Cc1ccccc1)C(=O)N[C@H](C(=O)N[C@H](CCC(=O)O)C(=O)N[C@@](C)(Cc1ccc(O)cc1)C(=O)N[C@@H](CC(C)C)C(=O)N[C@H](C(=O)N[C@@H](CCCCNC(=O)COCCOCCNC(=O)COCCOCCNC(=O)CC[C@H](NC(=O)CCCCCCCCCCOc1ccc(C(=O)O)cc1)C(=O)O)C(=O)NCC(=O)NCC(=O)N1CCC[C@H]1C(=O)N[C@@H](CO)C(=O)N[C@@H](CO)C(=O)NCC(=O)N[C@@H](C)C(=O)N1CCC[C@H]1C(=O)N1CCC[C@H]1C(=O)N1CCC[C@H]1C(=O)N[C@@H](CO)C(N)=O)[C@@H](C)CC)[C@@H](C)CC [Example 287] | 98.9 |  | > 9950 |  |  |  |  |  | 93 | > 9950 | 97.2
